The values below are quoted from earlier work in patent US20150157647A1, “METHODS AND CO[…] TO ACUTE RESPIRATORY DISTRESS SYNDROME” (priority 2013, published 2015).

In data set [1] the test system is animal models of preeclampsia.
The subject of data set [2] is rodent brain contusion model. The conditions noted are these: given 1 hour after the insult.
Data set [3] has as its system endothelial monolayers obtained from rat lung. The conditions noted are these: interferes with function of adherence proteins.

As for `C[C@]12CC[C@H](O)C[C@H]1CC[C@@H]1[C@@H]2CC[C@]2(C)[C@@H](c3ccc(=O)oc3)C[C@H]3O[C@]132` [RBG, epoxy-3β-hydroxy-5β-bufa-20,22-dienolide], in data set [1], the Effect on preeclampsia result was “prevents preeclampsia”. Further, in data set [2], the “Effect on tissue injury” value was “amelioration of tissue injury”.

In the case of `C[C@]12CC[C@H](O)C[C@@]1(O)CC[C@@H]1[C@@H]2CC[C@]2(C)[C@@H](c3ccc(=O)oc3)C[C@H]3O[C@]132` [MBG, marinobufagenin], the “In vitro vascular action” value was “vasoconstrictor”. The “Effect on vascular permeability” value in data set [3] is given as “causes vascular “leak””.
